Data taken from patent publication US20230277632A1, “MODIFIED PlySs2 LYSINS AND ANTIBIOTIC COMBINATIONS FOR USE AGAINST GRAM-POSITIVE BACTERIA” (ContraFect Corporation, priority 2020, published 2023).
Converted amounts (≈) assume the structure as drawn. “And” between values parts separate entries of the source, which are not always exact repeats. Equal values may be shown once.

Assays:
S. aureus isolates [1] = test: In vivo efficacy of daptomycin in combination with pp296, neutropenic murine thigh infection model; conditions: 24 h; for Replicate Log10 CFU/thigh data: daptomycin alone
Procedure: Study animals: Specific pathogen-free female ICR mice (average body weight 23 grams) were provided food and water ad libitum and maintained and used in accordance with National Research Council recommendations. Animals were allowed a 48-hour post-delivery acclimation period before every experiment. Mice were rendered transiently neutropenic by injection of cyclophosphamide via intraperitoneal (IP) route at a dose of 150 mg/kg of body weight at four days before bacterial inoculation and 100 mg/kg of body weight at one day before bacterial inoculation.
Neutropenic Thigh Infection Model: Two transfers of the bacterial isolates were performed onto trypticase soy agar plates with 5% sheep blood and placed into an incubator at 37° C. for approximately 24 hours. After an 18-24 hour incubation of the second transfer, a suspension of approximately 10^7 CFU/mL was made for inoculation. Final bacterial inoculum concentrations were confirmed by serial dilution and plating techniques. Thigh infection with the test isolate was produced by intramuscular injection of 0.1 mL of the bacterial inoculum into each thigh of the mice. Antimicrobial therapy was initiated 2 hours after bacterial inoculation, as detailed below.
Untreated control mice (n=3) were sacrificed just prior to antibiotic administration and 24 hours after bacterial inoculation. Animals sacrificed prior to antibiotic initiation served as 0-hour control animals, representing initial bacterial burden. […] Treatment mice (n=3/group) were sacrificed at the end of the 24 hour treatment period. After sacrifice, both thighs for each mouse were homogenized in normal saline. Serial dilutions were plated on Trypticase soy agar with 5% sheep blood and incubated for 18 to 20 hours at 37.0 to determine the CFU. Efficacy was calculated as the change in bacterial density obtained in treated mice after 24 hours compared with the numbers in the 0-hour control animals. Bacterial density represents the average CFU determined from 3 mice, each contributing 2 thighs.
For the 4 S. aureus isolates HPV107, CAIRD426, JMI227, and NRS123, the following sub-therapeutic daptomycin dosage regimen was adopted: 0.76 mg/kg at 0 hrs, 0.4 mg/kg at 4 hrs, 0.24 mg/kg at 10 hrs, and 0.12 mg/kg at 17 hrs.

S. aureus = test: pp296 dose fractionation study, neutropenic murine thigh infection model; assay type: in vivo; conditions: sub-therapeutic daptomycin SC alone, 24 h
Procedure: Each of the pp296 TDDs was fractionated into three regimens, i.e., one-third of the entire dose was administered via IV three times (q8h); one-half of the entire does was administered via IV two times (q12h), or the entire dose was administered via IV once daily over a 24-hour period, for a total of three groups per each TDD.
Untreated control mice (n=3/group) were sacrificed just prior to antibiotic administration, as well as 24 hours later. Animals sacrificed prior to antibiotic administration served as 0-hour control animals, representing initial bacterial burden. The 24-hour control animals received sterile normal saline in the same volume and schedule as the most frequent active drug regimen. […] After the 24-hour treatment period, all animals were euthanized and thighs were cultured quantitatively as described above. The change in bacterial density was calculated for each of the dosing regimen. Comparisons were made between the different regimens of the same total daily dose on bacterial burdens at 24 hours using one-way Analysis of Variance (ANOVA) test followed by Tukey's test where the P value was 0.05.

S. aureus isolates [2] = test: MIC determination (broth microdilution) against 8 S. aureus isolates; assay type: cell-based; conditions: CAMHB Ca^2+, unit assumed
Procedure: Suitable methods for assessing the activity of a modified lysin polypeptide as disclosed herein are well known in the art and described in the examples. […] For example, MIC values for a modified lysin polypeptide may be determined against e.g., laboratory Staphylococcus aureus strains, in e.g., Mueller-Hinton broth or Mueller-Hinton broth supplemented with serum, such as horse serum.
The pp296 MICs were determined based on (1) cation-adjusted Mueller-Hinton Broth with 25% horse serum and 0.5 mM DTT (caMHB-HSD); (2) human serum (100% serum); and (3) ICR mice (100% serum). Vancomycin and daptomycin MICs of the isolate strains were determined in accordance with the broth microdilution method as outlined by CLSI. Results of the MIC determination are shown below in Table 2. The bacterial isolates were frozen at −80° C. in skim milk.

CCCCCCCCCC(=O)N[C@@H](Cc1c[nH]c2ccccc12)C(=O)N[C@H](CC(N)=O)C(=O)N[C@@H](CC(=O)O)C(=O)N[C@@H]1C(=O)NCC(=O)N[C@@H](CCCN)C(=O)N[C@@H](CC(=O)O)C(=O)N[C@H](C)C(=O)N[C@@H](CC(=O)O)C(=O)NCC(=O)N[C@H](CO)C(=O)N[C@@H]([C@H](C)CC(=O)O)C(=O)N[C@@H](CC(=O)c2ccccc2N)C(=O)O[C@@H]1C [Daptomycin, daptomycin] was tested, and the “Replicate Log10 CFU/thigh data” value (S. aureus isolates [1]; isolate ATCC2921, 0.475/0.25/0.15/0.075 mg/kg at 0/4/10/17 hrs) was 8.02 Log10 CFU/thigh and 8.04 Log10 CFU/thigh and 7.79 Log10 CFU/thigh and 8.03 Log10 CFU/thigh and 6.18 Log10 CFU/thigh and 7.38 Log10 CFU/thigh, the “Replicate Log10 CFU/thigh data” value (S. aureus isolates [1]; isolate CAIRD426, 0.76/0.4/0.24/0.12 mg/kg at 0/4/10/17 hrs) was 8.16 Log10 CFU/thigh and 8.20 Log10 CFU/thigh and 7.59 Log10 CFU/thigh and 8.18 Log10 CFU/thigh and 7.47 Log10 CFU/thigh and 7.35 Log10 CFU/thigh and the “Replicate Log10 CFU/thigh data” value (S. aureus isolates [1]; isolate HPV107, 0.76/0.4/0.24/0.12 mg/kg at 0/4/10/17 hrs) was 7.16 Log10 CFU/thigh and 7.34 Log10 CFU/thigh and 7.24 Log10 CFU/thigh and 7.08 Log10 CFU/thigh and 6.74 Log10 CFU/thigh and 5.77 Log10 CFU/thigh. For the same compound, the “Replicate Log10 CFU/thigh data” value (S. aureus isolates [1]; isolate JMI227, 0.76/0.4/0.24/0.12 mg/kg at 0/4/10/17 hrs) was 5.93 Log10 CFU/thigh and 6.08 Log10 CFU/thigh and 6.48 Log10 CFU/thigh and 6.73 Log10 CFU/thigh and 6.86 Log10 CFU/thigh and 6.89 Log10 CFU/thigh, the “Replicate Log10 CFU/thigh data” value (S. aureus isolates [1]; isolate JMI4789, 0.475/0.25/0.15/0.075 mg/kg at 0/4/10/17 hrs) was 8.00 Log10 CFU/thigh and 6.85 Log10 CFU/thigh and 8.63 Log10 CFU/thigh and 8.52 Log10 CFU/thigh and 8.14 Log10 CFU/thigh and 7.21 Log10 CFU/thigh and the “Replicate Log10 CFU/thigh data” value (S. aureus isolates [1]; isolate NRS100, 0.475/0.25/0.15/0.075 mg/kg at 0/4/10/17 hrs) was 4.83 Log10 CFU/thigh and 5.29 Log10 CFU/thigh and 6.67 Log10 CFU/thigh and 7.76 Log10 CFU/thigh and 6.20 Log10 CFU/thigh and 7.09 Log10 CFU/thigh. The “Replicate Log10 CFU/thigh data” value (S. aureus isolates [1]; isolate NRS123, 0.76/0.4/0.24/0.12 mg/kg at 0/4/10/17 hrs) was 6.73 Log10 CFU/thigh and 7.28 Log10 CFU/thigh and 6.86 Log10 CFU/thigh and 7.09 Log10 CFU/thigh and 5.81 Log10 CFU/thigh and 6.81 Log10 CFU/thigh, the “Replicate Log10 CFU/thigh data” value (S. aureus isolates [1]; isolate NRS217, 0.475/0.25/0.15/0.075 mg/kg at 0/4/10/17 hrs) was 7.94 Log10 CFU/thigh and 7.84 Log10 CFU/thigh and 7.89 Log10 CFU/thigh and 7.92 Log10 CFU/thigh and 8.01 Log10 CFU/thigh and 8.02 Log10 CFU/thigh and the “average bacterial growth vs starting inoculum” value (S. aureus isolates [1]; sub-therapeutic daptomycin alone, 8 isolates) was 1.47±0.80 log10 CFU/thigh. The “bacterial burden vs 0-hour control mice” value (S. aureus) was 0.82±0.44 log10 CFU/thigh, the MIC Daptomycin (CAMHB Ca^2+) (S. aureus isolates [2]; ATCC 29213 MSSA) was 1 mg/L (≈ 0.617 µM) and the MIC Daptomycin (CAMHB Ca^2+) (S. aureus isolates [2]; CAIRD426 MRSA) was 1 mg/L (≈ 0.617 µM). For the same compound, the MIC Daptomycin (CAMHB Ca^2+) (S. aureus isolates [2]; HPV107 MRSA) was 0.5 mg/L (≈ 0.309 µM), the MIC Daptomycin (CAMHB Ca^2+) (S. aureus isolates [2]; JMI227 MRSA) was 0.5 mg/L (≈ 0.309 µM) and the MIC Daptomycin (CAMHB Ca^2+) (S. aureus isolates [2]; JMI4789 MRSA) was 1 mg/L (≈ 0.617 µM). The MIC Daptomycin (CAMHB Ca^2+) (S. aureus isolates [2]; NRS100 (COL) MRSA) was 0.5 mg/L (≈ 0.309 µM), the MIC Daptomycin (CAMHB Ca^2+) (S. aureus isolates [2]; NRS123 (MW2) MRSA) was 1 mg/L (≈ 0.617 µM) and the MIC Daptomycin (CAMHB Ca^2+) (S. aureus isolates [2]; NRS271 MRSA/LRSA) was 0.5 mg/L (≈ 0.309 µM).
